Measured values as given in patent US7524880B2, “Crystalline form of a substituted pyrrolidine compound” (Theravance, Inc., priority 2004, dated 2009).

System: ACh-induced bronchoconstriction
Test: Duration of bronchoprotection in guinea pig model of acetylcholine-induced bronchoconstriction
Assay type: in vivo
Settings: inhalation, 1.5 hours post-dose
Experimental: Groups of six male guinea pigs (Duncan-Hartley (HsdPoc:DH) Harlan, Madison, Wis.) weighing between 250 and 350 g were individually identified by cage cards. Throughout the study animals were allowed access to food and water ad libitum.
The test compound was administered via inhalation over 10 minutes in a whole-body exposure dosing chamber (R&S Molds, San Carlos, Calif.). The dosing chambers were arranged so that an aerosol was simultaneously delivered to 6 individual chambers from a central manifold. Guinea pigs were exposed to an aerosol of a test compound or vehicle (WFI). […] This was measured gravimetrically by comparing pre-and post-nebulization weights of the filled nebulizer.
The bronchoprotective effects of a test compound administered via inhalation were evaluated using whole body plethysmography at 1.5, 24, 48 and 72 hours post-dose.
Forty-five minutes prior to the start of the pulmonary evaluation, each guinea pig was anesthetized with an intramuscular injection of ketamine (43.75 mg/kg), xylazine (3.50 mg/kg) and acepromazine (1.05 mg/kg). […] The depth of anesthesia was monitored and adjusted if the animal responded to pinching of its paw or if the respiration rate was greater than 100 breaths/minute. […]
Starting this program initiated the experimental protocol and data collection. […] By integrating this signal over time, a measurement of flow was calculated for each breath. […]

CNCCCCCCCCN1CC[C@@H](C(C(N)=O)(c2ccccc2)c2ccccc2)C1 [compound of formula I, 2-[(S)-1-(8-methylaminooctyl)pyrrolidin-3-yl]-2,2-diphenylacetamide]
PD2(50) for ACh-induced bronchoconstriction: less than 200 μg/mL
